In brackets after ≈: the same amount, converted by molar mass.
Key:
[1] = test system: V. cholerae O1 reference strain ATCC14103; assay: In vitro antibacterial assay (broth dilution); type: cell-based, Vibrio cholerae; conditions: for concentration inhibiting bacterial growth: 37 °C, 18–20 h, tryptic soy broth
[2] = test system: V. cholerae O1 strain ISS-Vc014 (multiresistant clinical isolate); assay: In vitro antibacterial assay (broth dilution); type: cell-based, Vibrio cholerae; conditions: for concentration inhibiting bacterial growth: 37 °C, 18–20 h, tryptic soy broth
[3] = target: VchCA (Vibrio cholerae α-carbonic anhydrase) (Vibrio cholerae, UniProt Q9KMP6); assay: biochemical
Sequence of VchCA (Vibrio cholerae α-carbonic anhydrase) (Q9KMP6 entry or part of it): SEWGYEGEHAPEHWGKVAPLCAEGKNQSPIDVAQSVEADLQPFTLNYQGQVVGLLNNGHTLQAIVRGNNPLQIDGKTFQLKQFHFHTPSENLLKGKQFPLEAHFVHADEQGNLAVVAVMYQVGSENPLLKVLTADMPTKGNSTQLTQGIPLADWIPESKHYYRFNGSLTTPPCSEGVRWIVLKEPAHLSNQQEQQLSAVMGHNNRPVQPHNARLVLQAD
Procedure: (§1) The uncatalyzed rates were determined in the same manner and subtracted from the total observed rates. Stock solutions of inhibitor (0.01 mM) were prepared in distilled–deionised water with 5% DMSO and dilutions up to 0.1 nM were done thereafter with the assay buffer. The Inhibition constant (KI) was obtained by considering the classical Michaelis–Menten equation, which has been fitted by non-linear least squares by using PRISM 3. All CA isozymes used in the experiments were purified recombinant proteins obtained as reported earlier by our group.

hCA II = target: T1, hCA II (Homo sapiens, UniProt P00918); assay: Stopped-flow CO2 hydration assay, CA inhibition; type: biochemical
T1 construct: made in house
Procedure: as §1

hCA I = target: T2, hCA I (Homo sapiens, UniProt P00915); assay: Stopped-flow CO2 hydration assay, CA inhibition; type: biochemical
T2 construct: made in house
T2 sequence (P00915 whole entry): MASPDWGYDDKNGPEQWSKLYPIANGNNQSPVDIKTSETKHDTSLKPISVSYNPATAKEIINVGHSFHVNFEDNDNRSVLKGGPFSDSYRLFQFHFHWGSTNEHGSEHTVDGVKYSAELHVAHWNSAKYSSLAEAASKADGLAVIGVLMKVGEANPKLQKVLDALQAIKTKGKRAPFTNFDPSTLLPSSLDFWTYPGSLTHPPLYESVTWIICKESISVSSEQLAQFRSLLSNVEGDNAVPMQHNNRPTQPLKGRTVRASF
Procedure: as §1

[4] = test system: two V. cholerae O1 strains (ATCC14103 and ISS-Vc014); assay: In vitro antibacterial assay (broth dilution), strain not distinguished; type: cell-based, Vibrio cholerae; conditions: up to 3 mg ml^−1 (the limit of solubility)
[5] = Limit of solubility in the antibacterial test; conditions: 37 °C

SMILES | concentration inhibiting bacterial growth [1] | concentration inhibiting bacterial growth [2] | Ki [3] | Ki (hCA II) | Ki (hCA I) | melting point | activity compared to ampicillin [1] | activity compared to ampicillin [2] | inhibition of the bacterial growth at higher concentrations [4] | solubility [5]
CC1(C)S[C@@H]2[C@H](NC(=O)[C@H](N)c3ccccc3)C(=O)N2[C@H]1C(=O)O [Ampicillin, reference compound] | higher than 0.01 mg ml^−1 | 1.0 mg/mL |  |  |  |  |  |  |  | 
CS(=O)(=O)NCCCn1ccnc1 [Compound 1, N-(3-(1H-imidazol-1-yl)propyl)methanesulfonamide] |  |  | 10.9 nM | > 10000 nM | 387 nM | 89 to 91 °C |  |  |  | 
O=S(=O)(NCCCn1ccnc1)c1ccc(F)cc1 [Compound 2, N-(3-(1H-imidazol-1-yl)propyl)-4-fluorobenzenesulfonamide] | 2 mg/mL | 2 mg/mL | 8.5 nM | > 10000 nM | 1700 nM | 121 to 123 °C | less active | comparable activity |  | 
O=S(=O)(NCCCn1ccnc1)c1ccc(C(F)(F)F)cc1 [Compound 3, N-(3-(1H-imidazol-1-yl)propyl)-4-(trifluoromethyl)benzenesulfonamide] |  |  | 6.4 nM | > 50000 nM | > 50000 nM | 127 to 128 °C |  |  |  | 
O=[N+]([O-])c1ccc(S(=O)(=O)NCCCn2ccnc2)cc1 [Compound 4, N-(3-(1H-imidazol-1-yl)propyl)-4-nitrobenzenesulfonamide] |  |  | 6.2 nM | > 50000 nM | > 50000 nM | 140 to 141 °C |  |  |  | 
CC(=O)NCCCn1ccnc1 [Compound 5, N-(3-(1H-imidazol-1-yl)propyl)acetamide] |  |  | 39.2 nM | > 50000 nM | > 50000 nM |  |  |  |  | 
O=C(NCCCn1ccnc1)c1ccc(F)cc1 [Compound 6, N-(3-(1H-imidazol-1-yl)propyl)-4-fluorobenzamide] |  |  | 9.1 nM | > 50000 nM | > 50000 nM | 70 to 72 °C |  |  |  | 
O=C(NCCCn1ccnc1)c1ccc(C(F)(F)F)cc1 [Compound 7, N-(3-(1H-imidazol-1-yl)propyl)-4-(trifluoromethyl)benzamide] |  |  | 10.4 nM | > 10000 nM | 2550 nM | 106 to 107 °C |  |  | not active | 3000 µg/mL (≈ 10.1 mM)
O=C(NCCCn1ccnc1)c1ccc([N+](=O)[O-])cc1 [Compound 8, N-(3-(1H-imidazol-1-yl)propyl)-4-nitrobenzamide] |  |  | 11 nM | > 10000 nM | 1730 nM | 152 to 154 °C |  |  | partially active | 3000 µg/mL (≈ 10.9 mM)
O=C(NCCCn1ccnc1)c1ccc(-c2ccccc2)cc1 [Compound 9, N-(3-(1H-imidazol-1-yl)propyl)-[1,1′-biphenyl]-4-carboxamide] |  |  | 5.4 nM | > 50000 nM | > 50000 nM |  |  |  |  | 
O=C(NCCCc1ccccc1)c1ccc([N+](=O)[O-])cc1 [Compound 10, 4-Nitro-N-(3-phenylpropyl)benzamide] |  |  | 7.8 nM | > 50000 nM | > 50000 nM | 95 to 97 °C |  |  |  | 
